*1 amine or outer side, *2 acyl side, *3 side chain or, on linkers, in order; H or OH if unused. Where a SMILES comes first, the peptide text is derived from it. Bridges are numbered along the chain shown (N, C = ends). C6F4(1,4-diyl) = Fc1c(F)c([*:2])c(F)c(F)c1[*:1]
Test system: THP-1
Assay: Antiproliferative activity against human THP1 cells
Assay type: cell-based

SMILES	Activity
CC(=O)N[C@H]1CSc2c(F)c(F)c(c(F)c2F)SC[C@@H](C(N)=O)NC(=O)[C@H](Cc2ccccc2)NC(=O)[C@H](CCC(=O)O)NC(=O)CNC(=O)[C@H]([C@@H](C)O)NC(=O)[C@H](CCC(=O)O)NC(=O)[C@@H]2CCCN2C(=O)[C@H](CC(=O)O)NC(=O)[C@H](CC(C)C)NC1=O (Ac-CLDPETGEFC-NH2; linker 1-10 via C6F4(1,4-diyl))	Non-Toxic
CC(=O)N[C@H]1CSSC[C@@H](C(N)=O)NC(=O)[C@H](CCC(=O)O)NC(=O)CNC(=O)[C@H]([C@@H](C)O)NC(=O)[C@H](CCC(=O)O)NC(=O)[C@H](CCC(=O)O)NC(=O)[C@H](CC(=O)O)NC1=O (Ac-CDEETGEC-NH2; disulfide 1-8)	Non-Toxic
CC(=O)N[C@H]1CSSC[C@@H](C(N)=O)NC(=O)CNC(=O)[C@H]([C@@H](C)O)NC(=O)[C@H](CCC(=O)O)NC(=O)[C@H](CCC(=O)O)NC1=O (Ac-CEETGC-NH2; disulfide 1-6)	Non-Toxic
C[C@@H](O)[C@@H]1NC(=O)[C@H](CCC(=O)O)NC(=O)[C@H](CCC(=O)O)NC(=O)[C@H](CC(=O)O)NC(=O)[C@@H](N)CSSC[C@@H](C(N)=O)NC(=O)[C@H](CCC(=O)O)NC(=O)CNC1=O (H-CDEETGEC-NH2; disulfide 1-8)	Non-Toxic
CC(=O)N[C@H]1CSSC[C@@H](C(=O)O)NC(=O)[C@H](CCC(=O)O)NC(=O)CNC(=O)[C@H]([C@@H](C)O)NC(=O)[C@H](CCC(=O)O)NC(=O)[C@H](CCC(=O)O)NC(=O)[C@H](CC(=O)O)NC1=O (Ac-CDEETGEC-OH; disulfide 1-8)	Non-Toxic
CC(=O)N[C@H]1CSSC[C@@H](C(N)=O)NC(=O)[C@H](Cc2ccccc2)NC(=O)[C@H](CCC(=O)O)NC(=O)CNC(=O)[C@H]([C@@H](C)O)NC(=O)[C@H](CCC(=O)O)NC(=O)[C@H](CCC(=O)O)NC(=O)[C@H](CC(=O)O)NC(=O)[C@H](CC(C)C)NC1=O (Ac-CLDEETGEFC-NH2; disulfide 1-10)	Non-Toxic
CC(=O)N[C@H]1CSc2c(F)c(F)c(c(F)c2F)SC[C@@H](C(N)=O)NC(=O)[C@H](CCC(=O)O)NC(=O)CNC(=O)[C@H]([C@@H](C)O)NC(=O)[C@H](CCC(=O)O)NC(=O)[C@@H]2CCCN2C(=O)[C@H](CC(=O)O)NC1=O	Non-Toxic

Target: Kelch-like ECH-associated protein 1 (Homo sapiens, UniProt Q14145)
Sequence (Q14145 whole entry, the tested form may be a part): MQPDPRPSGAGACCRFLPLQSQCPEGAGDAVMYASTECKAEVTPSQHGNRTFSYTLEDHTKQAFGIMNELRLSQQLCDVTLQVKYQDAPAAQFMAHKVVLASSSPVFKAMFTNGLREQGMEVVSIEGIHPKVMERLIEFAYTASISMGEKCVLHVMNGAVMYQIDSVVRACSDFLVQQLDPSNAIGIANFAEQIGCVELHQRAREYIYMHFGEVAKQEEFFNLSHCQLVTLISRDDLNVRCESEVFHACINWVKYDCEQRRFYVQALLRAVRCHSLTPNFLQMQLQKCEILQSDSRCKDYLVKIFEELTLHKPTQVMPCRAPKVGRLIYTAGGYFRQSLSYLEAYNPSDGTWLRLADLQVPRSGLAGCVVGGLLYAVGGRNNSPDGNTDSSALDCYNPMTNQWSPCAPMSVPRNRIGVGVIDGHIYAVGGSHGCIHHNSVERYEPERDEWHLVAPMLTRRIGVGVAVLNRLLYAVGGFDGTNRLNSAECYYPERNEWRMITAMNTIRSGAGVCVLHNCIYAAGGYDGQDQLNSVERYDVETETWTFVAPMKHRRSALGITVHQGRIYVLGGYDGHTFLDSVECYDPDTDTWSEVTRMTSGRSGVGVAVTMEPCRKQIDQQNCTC
Assay: Displacement of F-14 from Keap1 Kelch domain (unknown origin) expressed in Escherichia coli BL21 (DE3) after 15 mins by fluorescence polarization assay

SMILES	Ki
CC(=O)N[C@H]1CSSC[C@@H](C(N)=O)NC(=O)CNC(=O)[C@H]([C@@H](C)O)NC(=O)[C@H](CCC(=O)O)NC(=O)[C@H](CCC(=O)O)NC1=O (Ac-CEETGC-NH2; disulfide 1-6)	151 µM
